# Reference: US9855292B2, “Cyanocobalamin, methylcobalamin, and/or adenosylcobalamin to help maintain a pain-free head and pain-free body and provide defense against headaches and body pain” (priority 2013, dated 2018)
# Like-named read-outs stand apart in the source and are kept apart here.
# Legend:
# migraine patients [1] = settings: cited from earlier work; for mean migraine severity: 0-3 scale, all subjects
# [2] = tested on: human subjects with demonstrated seasonal allergic rhinitis (hay fever); assay: Example 1 clinical study: reports of Headache after 21 days of study medication; format: in vivo; settings: for post-treatment reports of Headache, decrease from baseline: active group
# Experimental: This clinical study was designed and directed by the inventor of the current patent. […] Subjects were given their study medication, either Cyanocobalamin, USP or placebo in the a.m. and p.m. every day for 21 consecutive days. Data on adverse events including headache was captured throughout the ten-week duration of the study. Week One was a baseline during which time no medication was administered; Weeks Two, Three and Four were the weeks during which time the subjects received their study medication; and Weeks Five through Ten were a post-treatment period during which time no medication was administered but observations of symptoms and adverse events were documented. Each time a subject felt a “Headache”, he or she reported its occurrence.
# [3] = Example 2 Phase 3 study: blood serum cobalamin levels; format: in vivo, human; settings: cyanocobalamin, methylcobalamin and adenosylcobalamin; 3.3 mg a.m. and p.m., six weeks
# From the text: (§1) This clinical study was designed and directed by the inventor of the current patent. A large, multi-center, Phase 3, randomized, placebo-controlled clinical study on 1,551 patients was designed and directed by the inventor of the current patent. Methods: The study was titled: “A Phase 3, randomized, double-blind, placebo-controlled, parallel group study of the safety and efficacy of pre-seasonal sublingual cyanocobalamin lozenges on moderate to moderately severe seasonal allergic rhinitis in humans”. The study took place before and during the ragweed pollen season at 23 study sites in the Midwest, Northeast and Central Texas regions of the United States. Essentially all of the 23 investigators were Board Certified in Allergy/Immunology. Qualified subjects were randomized into an active or placebo group (approximately 50% and 50%) using an interactive voice recognition system (IVRS). All subjects (or their guardians) signed an Informed Consent form approved by the IRB. Each subject had three visits to the clinic. […] The blood samples were analyzed by chemiluminescent immunoassay for the presence of ragweed specific immunoglobulin epsilon (IgE), and were assayed for cobalamins (cyanocobalamin, methylcobalamin and adenosylcobalamin) levels. […]
# [4] = tested on: moderate to moderately severe seasonal allergic rhinitis in humans; assay: Example 2 Phase 3 study: allergy symptom scores; format: in vivo, human; settings: Weeks 4, 5 and 6; ITT; sneezing, runny nose, nasal congestion, nasal itch and eye itch
# From the text: as §1
# [5] = tested on: headache and body pain in humans; assay: Example 2 Phase 3 study: documented reports of headache and body pain; format: in vivo, human; settings: active group
# From the text: This clinical study was designed and directed by the inventor of the current patent. A large, multi-center, Phase 3, randomized, placebo-controlled clinical study on 1,551 patients was designed and directed by the inventor of the current patent. Methods: The study was titled: “A Phase 3, randomized, double-blind, placebo-controlled, parallel group study of the safety and efficacy of pre-seasonal sublingual cyanocobalamin lozenges on moderate to moderately severe seasonal allergic rhinitis in humans”. The study took place before and during the ragweed pollen season at 23 study sites in the Midwest, Northeast and Central Texas regions of the United States. Essentially all of the 23 investigators were Board Certified in Allergy/Immunology. Qualified subjects were randomized into an active or placebo group (approximately 50% and 50%) using an interactive voice recognition system (IVRS). All subjects (or their guardians) signed an Informed Consent form approved by the IRB. Each subject had three visits to the clinic. At Visit 1 and at Visit 3, they were given a physical exam (HEENT, chest, lungs, heart, vital signs, height and weight); and donated blood and urine samples for laboratory analysis. CBC and chemistry panels were run for safety analyses. The blood samples were analyzed by chemiluminescent immunoassay for the presence of ragweed specific immunoglobulin epsilon (IgE), and were assayed for cobalamins (cyanocobalamin, methylcobalamin and adenosylcobalamin) levels.
# Subjects were given their study medication, either 3.3 mg Cyanocobalamin, USP or placebo in the a.m. and p.m. Subjects were instructed to let the study drug “dissolve completely in your mouth, especially under your tongue, then swallow.”. Subjects self-administered the study medications for six consecutive weeks.
# Any adverse event (AE) or serious adverse event (SAE) was documented by the subject in a paper diary and then transcribed to the appropriate case report form (CRF) page. All SAEs were attended to by the investigator, and reported to the FDA by the sponsor. All sites were monitored multiple times by qualified monitors.
# The following types of headaches were self-diagnosed and documented by subjects in the study: tension headache, headache, migraine, increased frequency of headaches, worsening sinus migraine headache, increased headache, headache worsening, worsening of migraine, sinus headache, severe sinus headache, and sinus pressure headache.
# The following types of body pains and myasthenia were self-diagnosed and documented by subjects in the study: ear pain, earache, sore throat, sore muscles, leg cramps, myalgia, back pain, sprained ankle, ache, toothache, hip pain, finger pain, knee pain, pulled back muscle, shoulder pain, pulled hamstring, neck pain, femur pain, gum pain, sore muscle, toenail pain, sore foot, and pulled neck muscle.
# [6] = Example 2 Phase 3 study: safety; format: in vivo, human; settings: 3.3 mg a.m. and p.m., six weeks
# From the text: This clinical study was designed and directed by the inventor of the current patent. A large, multi-center, Phase 3, randomized, placebo-controlled clinical study on 1,551 patients was designed and directed by the inventor of the current patent. Methods: The study was titled: “A Phase 3, randomized, double-blind, placebo-controlled, parallel group study of the safety and efficacy of pre-seasonal sublingual cyanocobalamin lozenges on moderate to moderately severe seasonal allergic rhinitis in humans”. The study took place before and during the ragweed pollen season at 23 study sites in the Midwest, Northeast and Central Texas regions of the United States. Essentially all of the 23 investigators were Board Certified in Allergy/Immunology. Qualified subjects were randomized into an active or placebo group (approximately 50% and 50%) using an interactive voice recognition system (IVRS). […] The blood samples were analyzed by chemiluminescent immunoassay for the presence of ragweed specific immunoglobulin epsilon (IgE), and were assayed for cobalamins (cyanocobalamin, methylcobalamin and adenosylcobalamin) levels.
# Any adverse event (AE) or serious adverse event (SAE) was documented by the subject in a paper diary and then transcribed to the appropriate case report form (CRF) page. […] All sites were monitored multiple times by qualified monitors.
# migraine patients [7] = settings: 2 mg intramuscularly every two weeks for two months, cited from earlier work
compound,measurement,setting,value
C/C1=C2/[N-][C@H]([C@H](CC(N)=O)[C@@]2(C)CCC(=O)NC[C@@H](C)OP(=O)([O-])O[C@H]2[C@@H](O)[C@@H](n3cnc4cc(C)c(C)cc43)O[C@@H]2CO)[C@]2(C)N=C(/C(C)=C3N=C(/C=C4N=C1[C@@H](CCC(N)=O)C\4(C)C)[C@@H](CCC(N)=O)[C@]\3(C)CC(N)=O)[C@@H](CCC(N)=O)[C@]2(C)CC(N)=O.[Co+3].[OH-] [hydroxocobalamin],mean migraine severity,migraine patients [1]; at baseline,2.2
same,mean migraine severity,migraine patients [1]; at the end of the study,2.1
same,effect on migraine,"migraine patients [1]; intranasal, unblinded, open-label, 19 migraine patients",can have an effect on migraine
"5,6-dimethylbenzimidazolyl cyanocobamide [cyanocobalamin]","post-treatment reports of Headache, decrease from baseline",[2]; Week Eight,−2.1
same,"post-treatment reports of Headache, decrease from baseline",[2]; Week Five,−1.4
same,"post-treatment reports of Headache, decrease from baseline",[2]; Week Nine,−3.4
same,"post-treatment reports of Headache, decrease from baseline",[2]; Week Seven,−1.4
same,"post-treatment reports of Headache, decrease from baseline",[2]; Week Six,−1.6
same,"post-treatment reports of Headache, decrease from baseline",[2]; Week Ten,−3.2
same,persistence of effect per follow-up questionnaire,"[2]; almost one year later, 43 active and 49 placebo subjects",persistence of effect lasting almost one year
same,persistence of effect after finishing the treatment,[2]; post-treatment Weeks Five through Ten,at least six weeks
same,greater reduction in the frequency of headache in the active group versus placebo,[2]; six post-treatment weeks,five out of six post-treatment weeks
same,average increase in post-treatment blood serum cobalamin levels,[3],more than 250%
same,reduction in allergy symptom severity from baseline versus placebo,[4],greater for the active group than the placebo group
same,headache and body pain reports rated Mild,[5],63 reports
same,"headache and body pain reports rated Mild, share",[5],46.0%
same,headache and body pain reports rated Moderate,[5],68 reports
same,"headache and body pain reports rated Moderate, share",[5],49.6%
same,headache and body pain reports rated Severe,[5],6 reports
same,"headache and body pain reports rated Severe, share",[5],4.4%
same,documented reports of some type of headache and of body pain,[5]; of 294 reports in total,137 reports
same,safety / tolerability,[6],well tolerated
same,authors' conclusion on therapeutic effect,migraine patients [7],no therapeutic effect attributable to cyanocobalamin was demonstrated
same,patients reporting Considerable improvement,migraine patients [7]; active n=15,2
same,patients reporting Good result,migraine patients [7]; active n=15,4
